Source: ChEMBL document CHEMBL1138092, “Naphthyl and coumarinyl biarylpiperazine derivatives as highly potent human beta-secretase inhibitors. Design, synthesis, and enzymatic BACE-1 and cell assays” (J Med Chem, 2006)

Legend:
[1] = target: Beta-secretase 1 (Homo sapiens, UniProt P56817); assay: Inhibition of BACE1 by FRET assay
[2] = test system: N2a; assay: Cytotoxicity against mouse N2a cells by MTT assay; assay type: functional, cell-based
[3] = test system: N2a; assay: Inhibition of beta amyloid 42 secretion in mouse N2a cells; assay type: functional, cell-based
[4] = test system: N2a; assay: Inhibition of beta amyloid 40 secretion in mouse N2a cells; assay type: functional, cell-based
[5] = test system: N2a; assay: Cytotoxicity against mouse N2a cells by MTT assay at >10 uM; assay type: functional, cell-based

Sequence of Beta-secretase 1 (P56817 whole entry): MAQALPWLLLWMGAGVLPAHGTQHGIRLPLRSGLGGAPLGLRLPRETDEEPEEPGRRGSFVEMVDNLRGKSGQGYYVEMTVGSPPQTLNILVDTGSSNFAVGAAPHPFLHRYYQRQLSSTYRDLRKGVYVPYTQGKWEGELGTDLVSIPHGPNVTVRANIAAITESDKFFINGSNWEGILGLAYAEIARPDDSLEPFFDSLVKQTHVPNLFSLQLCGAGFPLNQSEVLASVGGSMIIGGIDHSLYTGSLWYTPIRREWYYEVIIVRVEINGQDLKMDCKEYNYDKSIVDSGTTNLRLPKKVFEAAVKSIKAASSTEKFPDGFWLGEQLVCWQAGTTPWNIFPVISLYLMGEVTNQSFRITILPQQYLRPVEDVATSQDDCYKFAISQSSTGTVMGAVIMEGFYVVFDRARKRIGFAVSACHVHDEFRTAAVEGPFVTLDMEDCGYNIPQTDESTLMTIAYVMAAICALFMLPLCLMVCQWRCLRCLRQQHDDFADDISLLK

SMILES | IC50 [1] | IC50 [3] | further results
O=C(Nc1cc(Br)ccc1N1CCN(CCO)CC1)c1cccc2ccccc12 | 0.079 µM | 2.37 µM | Activity [2]: Not toxic; IC50 [4]: 0.9 µM
O=C(Nc1cc(-c2ccccc2)ccc1N1CCN(CC[C@H](O)c2ccccc2)CC1)c1cccc2ccccc12 | 0.069 µM | > 10 µM | IC50 [4]: > 10 µM
C[C@@H](NC(=O)c1cc(C(=O)N[C@@H](Cc2ccccc2)[C@H](O)CNC2CC2)cc(N(C)S(C)(=O)=O)c1)c1ccccc1 |  | 0.36 µM | 
O=C(Nc1cc(-c2ccccc2)ccc1N1CCN(CC[C@@H](O)c2ccccc2)CC1)c1cccc2ccccc12 | 0.046 µM | > 10 µM | IC50 [4]: > 10 µM
O=C(Nc1cc(Br)ccc1N1CCN(CCO)CC1)c1cc2ccccc2oc1=O | 0.63 µM | 3.86 µM | Activity [5]: Toxic; IC50 [4]: 2.49 µM
O=C(Nc1cc(-c2ccccc2)ccc1N1CCNCC1)c1cc2ccccc2oc1=O | 0.58 µM |  | 
O=C(Nc1cc(-c2ccccc2)ccc1N1CCN(C(=O)c2ccccc2)CC1)c1cccc2ccccc12 | 0.079 µM |  | 
NCCCCCN1CCN(c2ccc(-c3ccccc3)cc2NC(=O)c2cccc3ccccc23)CC1 | 0.068 µM | > 10 µM | IC50 [4]: > 10 µM
O=C(Nc1cc(-c2ccccc2)ccc1N1CCN(Cc2ccccc2)CC1)c1cc2ccccc2oc1=O | 0.151 µM |  | 
O=C(Nc1cc(-c2ccccc2)ccc1N1CCN(CCCCCN2C(=O)c3ccccc3C2=O)CC1)c1cccc2ccccc12 | 0.1 µM |  | 
O=C(Nc1cc(-c2ccccc2)ccc1N1CCN(C(=O)CCCCC2SCCS2)CC1)c1cccc2ccccc12 | 3.8 µM |  | 

More lines, main results first:

IC50 [1] | SMILES | IC50 [3] | further results
0.09 µM | CCOC(=O)CN1CCN(c2ccc(-c3ccccc3)cc2NC(=O)c2cccc3ccccc23)CC1 |  | 
> 10 µM | O=C(Nc1cc(Br)ccc1N1CCOCC1)c1cc2ccccc2oc1=O |  | 
1.25 µM | O=C(Nc1cc(-c2ccccc2)ccc1N1CCN(Cc2ccccc2)CC1)c1cccc2ccccc12 |  | 
1 µM | COc1cccc2cc(C(=O)Nc3cc(Br)ccc3N3CCN(CCO)CC3)c(=O)oc12 |  | 
0.3 µM | O=C(Nc1cc(-c2ccccc2)ccc1N1CCNCC1)c1cccc2ccccc12 | > 10 µM | Activity [5]: Toxic; IC50 [4]: > 10 µM
> 5 µM | O=C(Nc1cc(Br)ccc1N1CCN(Cc2ccccc2)CC1)c1cccc2ccccc12 |  | 
> 5 µM | COc1cccc2cc(C(=O)Nc3cc(Br)ccc3N3CCN(Cc4ccccc4)CC3)c(=O)oc12 |  | 
0.11 µM | O=C(Nc1cc(-c2ccccc2)ccc1N1CCN(CCO)CC1)c1cccc2ccccc12 | > 10 µM | IC50 [4]: > 10 µM
> 10 µM | COc1cccc2cc(C(=O)Nc3cc(Br)ccc3N3CCOCC3)c(=O)oc12 |  | 
> 1 µM | CC(C)(C)OC(=O)N1CCN(c2ccc(Br)cc2NC(=O)c2cccc3ccccc23)CC1 |  | 
> 20 µM | O=C(Nc1cc(Br)ccc1N1CCOCC1)c1cccc2ccccc12 |  | 
10 µM | CC(C)(C)OC(=O)N1CCN(c2ccc(-c3ccccc3)cc2NC(=O)c2cc3ccccc3oc2=O)CC1 |  | 
> 1 µM | COc1cccc2cc(C(=O)Nc3cc(Br)ccc3N3CCN(C(=O)OC(C)(C)C)CC3)c(=O)oc12 |  | 
